Reference: ChEMBL document CHEMBL5137055, “Near-Infrared Fluorescent Probes as Imaging and Theranostic Modalities for Amyloid-Beta and Tau Aggregates in Alzheimer's Disease” (J Med Chem, 2022)
Blank lines part the entries; values can stand above or below the compound they belong to.

Experiments:
[1] = Binding affinity to amyloid beta (unknown origin) monomer; parameters: species or system Homo sapiens
[2] = Binding affinity to amyloid beta (unknown origin); parameters: species or system Homo sapiens
[3] = Binding affinity to tau protein (unknown origin); parameters: species or system Homo sapiens
[4] = Binding affinity to amyloid beta (unknown origin) aggregates; parameters: species or system Homo sapiens
[5] = target: Amyloid-beta precursor protein (Homo sapiens, UniProt P05067); assay: Binding affinity to amyloid beta (1 to 40) (unknown origin) fibrils
Amyloid-beta precursor protein, sequence (P05067 whole entry): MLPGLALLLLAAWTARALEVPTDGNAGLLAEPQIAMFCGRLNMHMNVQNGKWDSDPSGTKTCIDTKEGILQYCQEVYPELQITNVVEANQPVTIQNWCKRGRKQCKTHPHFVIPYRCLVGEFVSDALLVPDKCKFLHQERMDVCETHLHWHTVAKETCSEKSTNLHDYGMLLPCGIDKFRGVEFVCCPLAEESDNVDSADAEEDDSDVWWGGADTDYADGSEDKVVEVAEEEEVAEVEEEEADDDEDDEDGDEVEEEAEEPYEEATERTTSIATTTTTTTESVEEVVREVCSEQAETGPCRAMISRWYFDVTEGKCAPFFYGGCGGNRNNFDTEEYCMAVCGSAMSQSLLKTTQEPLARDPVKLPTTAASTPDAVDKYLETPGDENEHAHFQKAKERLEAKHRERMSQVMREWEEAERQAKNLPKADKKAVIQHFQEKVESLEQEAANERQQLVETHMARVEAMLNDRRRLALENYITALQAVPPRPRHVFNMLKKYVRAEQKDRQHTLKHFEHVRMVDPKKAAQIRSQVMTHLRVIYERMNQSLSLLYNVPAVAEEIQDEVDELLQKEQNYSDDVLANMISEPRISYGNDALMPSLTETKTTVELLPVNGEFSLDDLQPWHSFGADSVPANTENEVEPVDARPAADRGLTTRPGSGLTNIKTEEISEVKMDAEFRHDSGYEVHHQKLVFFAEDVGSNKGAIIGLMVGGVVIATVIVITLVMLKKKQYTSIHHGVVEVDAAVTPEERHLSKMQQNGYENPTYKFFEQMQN

Kd [1]: 18 nM
SMILES: Cc1cc(/C=C/c2ccc(-c3ccc(N(C)C)cc3)o2)n2c1C=C1C=CC=[N+]1[B-]2(F)F

Kd [1]: 320 nM
SMILES: CC1=[N+]2C(=C(/C=C/c3ccc(N(C)C)cc3)c3ccc(C)n3[B-]2(F)F)C=C1

Kd [1]: 27 nM
SMILES: Cc1cc(/C=C/c2ccc(-c3ccc(N(C)C)cc3)s2)n2c1C=C1C=CC=[N+]1[B-]2(F)F

Ki [5]: 143 nM
SMILES: Cc1ccc2nc(-c3ccc(N(C)C)cc3)sc2c1

Kd [5]: 8310 nM | IC50 [3]: 5.1 nM
SMILES: C[N+]1=C(/C=C/c2ccc(N3CCCC3)cc2)C(C)(C)c2ccccc21

Ki [2]: 370 nM
SMILES: O=C(O)c1cc(/N=N/c2ccc(-c3ccc(/N=N/c4ccc(O)c(C(=O)O)c4)cc3)cc2)ccc1O [CHRYSAMINE G]

Kd [5]: 92000 nM
SMILES: COCCOCCn1c2ccccc2c2cc(/C=C/c3cc[n+](CCO)c4ccccc34)ccc21

Kd [4]: 360 nM
SMILES: COCCOCCOCCOC(=O)/C(C#N)=C/c1ccc(-c2ccc3cc(N4CCCCC4)ccc3c2)o1

Kd [4]: 161 nM | Kd [3]: 1.19 nM
SMILES: Cc1cc(/C=C/c2ccc3cc(N(C)C)ccc3c2)n2c1C=C1C=CC=[N+]1[B-]2(F)F

IC50 [2]: 4 nM | Kd [3]: 54 nM
SMILES: CN(C)c1ccc(/C=C/c2cc(/C=C/c3ccc(N(C)C)cc3)ncn2)cc1

Kd [2]: 44.6 nM
SMILES: CN(C)c1ccc2cc3c(cc2c1)OCC(C=C(C#N)C#N)=C3

Kd [4]: 19400 nM
SMILES: COCCOCCOCCOC(=O)/C(C#N)=C/c1ccc(N2CCCCC2)cc1

Kd [3]: 1900 nM
SMILES: Cc1ccc2c(sc(-c3ccc4c(c3)sc(-c3ccc(N(C)C)cc3)[n+]4C)[n+]2C)c1S(=O)(=O)O

Kd [5]: 1220 nM | Kd [3]: 126 nM
SMILES: CC[n+]1c(/C=C/C=C/c2ccc(N(C)C)cc2)sc2ccccc21

Kd [5]: 194000 nM
SMILES: COCCOCCn1c2ccccc2c2cc(/C=C/c3cc[n+](C)cc3)ccc21

Continued, compound first:

SMILES: C(=C\c1cc(/C=C/c2ccc(N3CCCC3)cc2)ncn1)/c1ccc(N2CCCC2)cc1
IC50 [2]: 2 nM | Kd [3]: 52 nM

SMILES: CN(C)c1ccc(/C=C/C=C/C=C/C=C(C#N)C#N)cc1
Ki [2]: 14.1 nM

SMILES: COCCOCCOCCOC(=O)/C(C#N)=C/c1ccc(-c2ccc3cc(N4CCCCC4)ccc3c2)n1C
Kd [4]: 2300 nM

SMILES: COCCOCCOCCOC(=O)/C(C#N)=C/c1ccc(-c2ccc3cc(N4CCCCC4)ccc3c2)s1
Kd [4]: 530 nM

SMILES: COCCOCCn1c2ccccc2c2cc(/C=C/c3cc[n+](CCO)cc3)ccc21
Kd [5]: 459000 nM

SMILES: N#CC(C#N)=Cc1ccc(-c2ccc(-c3ccc(O)cc3)s2)s1
Kd [2]: 54.6 nM | Ki [2]: 10 nM

SMILES: CC(C)CC1=CC(/C=C/C=C/c2ccc(N(C)C)cc2)=[O+][B-](F)(F)O1
Kd [2]: 1410 nM | Kd [3]: 50000 nM

SMILES: COc1cc(/C=C/C(O)=C/C(=O)/C=C/c2ccc(OCCCF)c(OC)c2)ccc1O
Ki [2]: 0.07 nM

SMILES: CN(C)c1ccc(/C=C/c2cnc3ccccc3n2)s1
Kd [2]: 25.2 nM | Kd [3]: 127 nM

SMILES: COc1ccc(/C=C/c2ccc3n2[B-](F)(F)[N+]2=C(C)C=CC2=C3/C=C/c2ccc(N(C)C)cc2)cc1
Kd [1]: 230 nM

SMILES: COc1cc(N(C)C)cc(OC)c1/C=C/C=C/C=C/C(C#N)C(=O)OCc1ccco1 (stereo unspecified)
Kd [2]: 1500 nM | Kd [3]: 1020 nM

SMILES: CN(C)c1ccc(-c2ccc(/C=C/C3=CC(=C(C#N)C#N)c4ccccc4N3CCCS(=O)(=O)O)s2)cc1
Kd [2]: 170 nM

SMILES: CN(C)c1ncc(/C=C/C=C/C=C/C=C(C#N)C#N)cn1
Ki [2]: 978 nM

SMILES: Cc1cc(/C=C/c2ccc(N(C)C)s2)n2c1C=C1C=CC=[N+]1[B-]2(F)F
Kd [1]: 55 nM

SMILES: COc1ccc(/C=C/C2=[N+]3C(=C(/C=C/c4ccc(N(C)C)cc4)c4ccc(/C=C/c5ccc(OC)cc5)n4[B-]3(F)F)C=C2)cc1
Kd [1]: 320 nM

SMILES: CC(=C(C#N)C#N)c1ccc2cc(N(C)CCF)ccc2c1
Ki [4]: 0.2 nM

SMILES: CN(C)c1ccc(/C=C/C=C/C=C/C=C(C#N)C#N)cn1
Ki [2]: 92.6 nM

SMILES: CC(=C(C#N)C#N)c1ccc2cc(N(C)C)ccc2c1
Ki [4]: 10 nM

SMILES: CNc1ccc(-c2nc3ccc(O)cc3s2)cc1[18F] [FLUTEMETAMOL F 18]
Kd [2]: 6.7 nM

SMILES: Cc1cc(/C=C/C=C/c2ccc(N(C)C)cc2)n2c1C=C1C=CC=[N+]1[B-]2(F)F
Kd [4]: 325 nM | Kd [3]: 2.86 nM

SMILES: COc1cc(N(C)C)cc(OC)c1/C=C/C(=O)/C=C(O)/C=C/c1c(OC)cc(N(C)C)cc1OC
IC50 [3]: 770 nM
